Measurements published in EP0028270A1, “Pyrazino-carbazoles, process for their preparation and pharmaceutical compositions containing them” (CASSELLA Aktiengesellschaft, priority 1979, dated 1981).

Tests used:
[1] = system: Tetrabenazin; assay: Tetrabenazine antagonism (antidepressant activity); assay type: in vivo; settings: for ED50: no unit, species or route given, read-out: Tetrabenazin Dosis Antagonismus ED50; for LD50/ED50: ratio of LD50 to tetrabenazine antagonism ED50
[2] = Acute toxicity (LD50); assay type: in vivo; settings: no unit, species or route given

Structure (SMILES) | ED50 [1] [mg/kg] | LD50/ED50 [1] | LD50 [2] [mg/kg]
Cc1ccc2c(c1)c1c3n2CCNC3CCC1.Cl (centres unmarked) [8-Methyl-2,3,3a,4,5,6-hexahydro-1H-pyrazino[3,2,1-jk]-carbazol-Hydrochlorid, reference compound] | 14 | 8,7 | –
Cc1ccc2c(c1)c1c3n2CCN=C3CCC1.Cl [Beispiel 1, 8-Methyl-2,4,5,6-tetra-hydro-1H-pyrazino[3,2,1-jk]carbazol-Hydrochlorid] | 4 | 18,0 | 72
COc1ccc2c(c1)c1c3n2CCN=C3CCC1.Cl [Beispiel 2, 8-Methoxy-2,4,5,6-tetra-hydro-1H-pyrazino[3,2,1-jk]carbazol-Hydrochlorid] | 2 | 18,5 | 37
